Reference: US9205161B2, “Disinfecting composition comprising a chloramine bleaching agent for removable dental appliances” (LMA Solutions, Inc., priority 2014, dated 2015)

Test system: BL21 E. coli cells
Assay: Bacterial kill after contact in LB broth, plating on LB agar
Type: cell-based
Details: 15 min exposure at 37° C.; for % Reduction Product / CFU/ml Product / Log reduction Product: MES 25 μM, NaDCC 0.9 mg/ml
Description: A working suspension of BL21 E. coli cells in LB broth (1.16×10^8 CFU/ml) was contacted for 15 min at 37° C. with either 1×PBS buffer (control), 2-(N-morpholino)ethanesulfonic acid (“MES”) (final conc. of 25 μM or 0.0049 mg/ml), Sodium Dichloroisocyanurate (“NaDCC”) (final conc. of 0.9 mg/ml), or MES (final conc. of 25 μM or 0.0049 mg/ml)+NaDCC (final conc. of 0.9 mg/ml). Lysogeny broth (LB), a nutritionally rich medium, is primarily used for the growth of bacteria.
After contact, ten-fold serial dilutions from 1:10 to 1:10^6 were prepared using D/E neutralizing broth and an aliquot at each dilution (100 μl) was plated onto an LB agar plate and incubated for 20 hours at 37° C.
The plate shown in FIG. 1A corresponds to treatments with MES-only at a plating dilution of 1:1×10^4. The plate shown in FIG. 1B corresponds to treatments with NaDCC-only at a plating dilution of 1:10. The plate shown FIG. 1C corresponds to treatment with MES+NaDCC at plating dilution of 1:10.

Structure (SMILES) | Plate count (CFU) (plate dilution 1:1.0E+01, 100 ul plated) | % Reduction Product | CFU/ml Product | Log reduction Product | Plate count (CFU) (plate dilution 1:1.0E+05, 100 ul plated)
O=c1nc([O-])n(Cl)c(=O)n1Cl.[Na+] [NaDCC only, Sodium Dichloroisocyanurate] | 331 CFU | 99.9715% | 3.31E+04 CFU/ml | 3.54 | 
O=S(=O)(O)CCN1CCOCC1 [MES only, 2-(N-morpholino)ethanesulfonic acid] |  | −10.3448% | 1.28E+08 CFU/ml | −0.04 | 128 CFU
